{"source": "patent US20050250788A1", "about": "“Aqueous outflow enhancement with vasodilated aqueous cavity” (priority 2004, published 2005)", "origin": "cited, not measured here", "key": {"[1]": {"conditions": "at low concentrations"}, "[2]": {"assay": "not given", "remark": "listed apart in the source"}, "[3]": {"conditions": "chronic, patients with essential hypertension"}, "[4]": {"conditions": "for area under the plasma concentration time curve / mean peak plasma concentration (C(max)): multiple oral once-daily doses of 200 mg"}, "[5]": {"system": "norepinephrine and dopamine neuronal reuptake"}, "[6]": {"assay": "not given", "remark": "listed apart in the source"}, "[7]": {"system": "adrenergic (alpha(1), alpha(2) and beta), cholinergic, GABA, dopaminergic, histaminergic, serotonergic (5-HT1A, 5-HT1B, 5-HT2) or benzodiazepine binding sites"}, "[8]": {"conditions": "placebo-controlled, normal volunteers"}, "[9]": {"conditions": "topical"}}, "note": "Structures can show the parent of a compound that is named as a salt."}
{"compound": "COc1ccccc1OCCNCC(O)c1ccc(C)c(S(N)(=O)=O)c1", "note": "(stereo not drawn) [5-[1-hydroxy-2-[2-(2-methoxyphenoxyl)ethylamino]ethyl]-2-methylbenzenesulfonamide]", "values": [{"measurement": "intraocular pressure reducing activity", "setting": "[1]", "result": "excellent intraocular pressure reducing activity"}]}
{"compound": "CC[C@@H]1C(=O)OC[C@@H]1Cc1cncn1C", "note": "[Pilocarpine]", "values": [{"measurement": "output of clear fluid after administration into a glaucomatous eye", "result": "increase the output of clear fluid"}]}
{"compound": "CN[C@H]1CC[C@@H](c2ccc(Cl)c(Cl)c2)c2ccccc21", "note": "[Sertraline hydrochloride, (1S-cis)-4-(3,4-dichlorophenyl)-1,2,3,4-tetrahydro-N-methyl-1-nanphthalenamine hydrochloride]", "values": [{"measurement": "solubility in ethanol", "setting": "[2]; ethanol", "result": "sparingly soluble"}, {"measurement": "solubility in isopropyl alcohol", "setting": "[2]; isopropyl alcohol", "result": "slightly soluble"}, {"measurement": "solubility in water", "setting": "[2]; water", "result": "slightly soluble"}]}
{"compound": "C[C@H](CS)C(=O)N1CCC[C@H]1C(=O)O", "note": "[captopril]", "values": [{"measurement": "decrease in mean arterial pressure compared with placebo baseline", "setting": "[3]", "result": "equivalent decreases"}]}
{"compound": "N[C@H]1CC[C@@H](c2ccc(Cl)c(Cl)c2)c2ccccc21", "note": "[desmethylsertraline]", "values": [{"measurement": "elevation of plasma levels in the elderly", "setting": "[4]; elderly, following multiple dosing", "result": 3, "unit": "fold"}, {"measurement": "half-life", "setting": "[4]; metabolite, multiple oral once-daily doses of 200 mg sertraline", "result": 65, "unit": "h"}, {"measurement": "area under the plasma concentration time curve", "setting": "[4]", "result": 2300, "unit": "ng·h/mL"}, {"measurement": "mean peak plasma concentration (C(max))", "setting": "[4]", "result": 140, "unit": "ng/mL"}]}
{"compound": "CNC(=O)Oc1ccc2c(c1)[C@]1(C)CCN(C)[C@@H]1N2C", "note": "[eserine]", "values": [{"measurement": "output of clear fluid after administration into a glaucomatous eye", "result": "increase the output of clear fluid"}]}
{"compound": "CC(N/C(=N\\C#N)Nc1ccncc1)C(C)(C)C", "note": "(stereo not drawn) [pinacidil]", "values": [{"measurement": "decrease in mean arterial pressure compared with placebo baseline", "setting": "[3]", "result": "equivalent decreases"}]}
{"compound": "COc1cc2nc(N3CCN(C(=O)c4ccco4)CC3)nc(N)c2cc1OC", "note": "[prazosin]", "values": [{"measurement": "decrease in mean arterial pressure compared with placebo baseline", "setting": "[3]", "result": "equivalent decreases"}]}
{"compound": "CN[C@H]1CC[C@@H](c2ccc(Cl)c(Cl)c2)c2ccccc21", "note": "[sertraline]", "values": [{"measurement": "dose proportionality", "setting": "[4]; clinical dose range of 50 to 200 mg/day", "result": "Linear dose proportionality"}, {"measurement": "area under the plasma concentration time curve", "setting": "[4]", "result": 2800, "unit": "ng·h/mL"}, {"measurement": "mean peak plasma concentration (C(max))", "setting": "[4]", "result": 190, "unit": "ng/mL"}, {"measurement": "increase of bioavailability by food", "setting": "[4]; oral, with food", "result": "about 40%"}, {"measurement": "average terminal elimination half-life", "setting": "[4]; single or multiple oral once-daily doses of 50 to 400 mg/day", "result": "approximately 26 hours"}, {"measurement": "effects on norepinephrine and dopamine neuronal reuptake", "setting": "[5]", "result": "only very weak effects"}, {"measurement": "plasma protein bound", "setting": "[6]", "result": "Approximately 98%"}, {"measurement": "affinity for binding sites", "setting": "[7]", "result": "no significant affinity"}, {"measurement": "psychomotor performance", "setting": "[8]", "result": "did not interfere with psychomotor performance"}, {"measurement": "sedation", "setting": "[8]", "result": "did not cause sedation"}]}
{"compound": "cyclosporin-A", "values": [{"measurement": "post-surgical increases in intraocular pressure", "setting": "[9]", "result": "reduce post-surgical increases in intraocular pressure"}]}
